Measured values taken from US8697731B2, “Derivatives of 2-pyridin-2-yl-pyrazol-3(2H)-one, preparation and therapeutic use thereof” (Sanofi, priority 2008, dated 2014).
Where a name gives a salt, the structure may show the parent alone.

Key:
HIF1-alpha = test: Measurement of the stabilization of HIF1-alpha in HEKEA cells (beta-galactosidase complementation); type: cell-based, human; details: HEKEA_HIF1-alphaPLBL cells, 6 hours under normoxia, luminescence; molar concentration that produces 50% of the maximum response of this same compound
Source text: Furthermore, a subject of the invention is also a uniform test for the direct measurement by beta-galactosidase complementation of the amount of HIF1-alpha protein in the nucleus of cells, preferably HEK cells, after treating the said cells with one or more test compounds, which consists in: • (a) inoculating, preferably in 384-well plates, the said cells in a suitable culture medium, preferably 1% foetal calf serum (abbreviated as FCS); • (b) adding the test compound(s) at a suitable concentration in a suitable solvent to the cells previously inoculated in the said culture medium; preferably the test compounds are diluted in 0.1% FCS; • (c) incubating the said cells thus prepared in an indicator at about 37° C., advantageously for about 6 hours; • (d) lysing the cells with a lysis buffer containing a chemiluminescent substrate for beta-galactosidase; • (e) incubating in the absence of light, before reading and measuring the luminescence, which is a function of the beta-galactosidase activity.
The test is a cell test based on the principle of enzyme complementation, the enzyme used herein being beta-galactosidase. HEKEA cells are HEK cells stably expressing, and restricted in their nucleus, mutant beta-galactosidase (omega fragment, also known as EA) (line sold by DiscoverX). This construct makes it possible to obtain beta-galactosidase activity only when the protein comprising the Prolabel complementation fragment has migrated into the nucleus.
The protein of interest comprising the Prolabel fragment is in this case an HIF1-alpha or HIF1-alpha mutated at the two prolines 402 and 564 replaced with alanines, is C-terminal fused via molecular biology (DiscoverX vector sold by Clontech) with the small complementation peptide fragment (Prolabel or ED, about 4 kDa). The vector coding for the chimeric protein HIF1-alpha_Prolabel is then transfected into HEKEA cells to obtain stable clones (HEKEA_HIF1-alphaPLBL).
The amount of C-terminal Prolabel-“labelled” HIF1-alpha protein obtained after treating the cells to hypoxia or compounds that are potentially HIF activators is measured by adding to the cells a lysis buffer containing a chemiluminescent substrate for beta-galactosidase.
The measurement of the beta-galactosidase activity will be proportional to the amount of Prolabel and thus of HIF1-alpha that has migrated into the nucleus of the cells.
1.3.1 Experiment Plan • 1) Inoculation of the cells on D0 • 2) Adherence for 24 hours under normoxia • 3) Preparation and addition of the products (Biomek 2000 and FX) on D+1 • 4) Incubation under normoxia for 6 hours • 5) Reading of the plates (by luminescence)
The cells are inoculated with Multidrop in white, opaque-bottomed 384-well plates (Greiner ref 3704), in 30 μl of culture medium (1% FCS) a 10000 cells/well (cell plate).
The test products are prepared at 3×10^−2 M in 100% DMSO and then diluted to 3×10^−4 M in medium containing 0.1% FCS (10 μl in 990 μl of MEM). They are then deposited by hand into column 12 of a round-bottomed 96-well plate (200 μl of each compound) known as the dilution plate (dl). The complete DL plate of 3×10^−4 M to 10^−9 M is then prepared with Biomek 2000 (programme: range of 10 points in series). For the references and controls, 100 μl of DMEM containing 0.1% FCS are added to column 1, 100 μl of Deferoxamine 10^−3M to column 2, wells A B C D and 100 μl of Deferoxamine 5×10^−3 M to column 2, wells E F G H.
3.3 μL are taken from the DL plate by pipetting with a Biomek FX 96 and placed in horizontal duplicate (columns 1 to 24) in each 384-well cell plate (HEKEA_HIF1-alphaPLBL cell plate).
The cells are then placed for 6 hours in an incubator at 37° C. (ambient O2, 6% CO2).
The kit used is the Prolabel chemiluminescent kit (Ref 93-0001 DiscoverX). […]

EC50 (HIF1-alpha)	melting point	Structure (SMILES)
9.4 µM	–	CC(C)(C)NC(=O)c1ccc(-n2nc3c(c2O)CSC3)nc1 [Compound 33, sodium 2-[5-(tert-butylcarbamoyl)pyridin-2-yl]-2,6-dihydro-4H-thieno[3,4-c]pyrazol-3-olate]
–	230 °C	CC(C)(C)COC(=O)c1ccc(-n2[nH]c3c(c2=O)CN(S(C)(=O)=O)CC3)nc1 [Compound 54, 2,2-dimethylpropyl 6-[5-(methylsulfonyl)-3-oxo-1,3,4,5,6,7-hexahydro-2H-pyrazolo[4,3-c]pyridin-2-yl]pyridine-3-carboxylate]
–	> 260 °C	CCc1ccnc(-n2[nH]c3c(c2=O)CSC3)c1 (as salt: Na) [Compound 61, sodium 2-(4-ethylpyridin-2-yl)-2,6-dihydro-4H-thieno[3,4-c]pyrazol-3-olate]
2.2 µM	200 °C	CCN(c1ccccc1)S(=O)(=O)c1ccc(-n2[nH]c3c(c2=O)CCCCCC3)nc1 [Compound 37, N-ethyl-6-(3-oxo-1,3,4,5,6,7,8,9-octahydro-2H-cycloocta[c]pyrazol-2-yl)-N-phenylpyridine-3-sulfonamide]
–	198 °C	CN(Cc1ccccn1)S(=O)(=O)c1ccc(-n2[nH]c3c(c2=O)CSC3)nc1 (as salt: HCl) [Compound 27, N-methyl-6-(3-oxo-4,6-dihydro-1H-thieno[3,4-c]pyrazol-2(3H)-yl)-N-(pyridin-2-ylmethyl)pyridine-3-sulfonamide]
–	130 °C	CN(C(C)(C)C)S(=O)(=O)c1ccc(-n2nc3c(c2O)CSC3)nc1 (as salt: Na) [Compound 36, sodium 2-{5-[tert-butyl(methyl)sulfamoyl]pyridin-2-yl}-2,6-dihydro-4H-thieno[3,4-c]pyrazol-3-olate]
3.8 µM	192 °C	CCN(CC)S(=O)(=O)c1ccc(-n2[nH]c3c(c2=O)CSC3)nc1 [Compound 38, N,N-diethyl-6-(3-oxo-4,6-dihydro-1H-thieno[3,4-c]pyrazol-2(3H)-yl)pyridine-3-sulfonamide]
–	> 260 °C	Oc1c2c(nn1-c1cc(OCc3cccnc3)ccn1)CSC2 (as salt: Na) [Compound 64, sodium 2-[4-(pyridin-3-ylmethoxy)pyridin-2-yl]-2,6-dihydro-4H-thieno[3,4-c]pyrazol-3-olate]
12 µM	> 260 °C	O=c1c2c([nH]n1-c1ccc(S(=O)(=O)Nc3ccccn3)cn1)CSC2 [Compound 23, 6-(3-oxo-4,6-dihydro-1H-thieno[3,4-c]pyrazol-2(3H)-yl)-N-(pyridin-2-yl)pyridine-3-sulfonamide]
–	> 220 °C	Cc1ccc(-n2nc3c(c2[O-])CSC3)nc1.[Na+] [Compound 31, sodium 2-(5-methylpyridin-2-yl)-2,6-dihydro-4H-thieno[3,4-c]pyrazol-3-olate]
10 µM	> 220 °C	COc1ccc(-n2nc3c(c2[O-])CSC3)nc1.[Na+] [Compound 34, sodium 2-(5-methoxypyridin-2-yl)-2,6-dihydro-4H-thieno[3,4-c]pyrazol-3-olate]
–	> 250 °C	CCN(c1ccccc1)S(=O)(=O)c1ccc(-n2nc3c(c2O)N(Cc2ccccc2)C(=O)CC3)nc1 (as salt: Na) [Compound 35, sodium 4-benzyl-2-{5-[ethyl(phenyl)sulfamoyl]pyridin-2-yl}-5-oxo-4,5,6,7-tetrahydro-2H-pyrazolo[4,3-b]pyridin-3-olate]
–	92 °C	CC(C)c1ccnc(-n2[nH]c3c(c2=O)CSC3)c1 [Compound 65, 2-[4-(propan-2-yl)pyridin-2-yl]-1,2,4,6-tetrahydro-3H-thieno[3,4-c]pyrazol-3-one]
–	> 260 °C	CCN(C(C)(C)C)S(=O)(=O)c1ccc(-n2nc3c(c2O)CSC3)nc1 (as salt: Na) [Compound 32, sodium 2-{5-[tert-butyl(ethyl)sulfamoyl]pyridin-2-yl}-2,6-dihydro-4H-thieno[3,4-c]pyrazol-3-olate]
–	190 °C	O=c1c2c([nH]n1-c1ccc(S(=O)(=O)N(CC(O)CO)C3CCCC3)cn1)CSC2 (stereo not shown) [Compound 53, N-cyclopentyl-N-(2,3-dihydroxypropyl)-6-(3-oxo-4,6-dihydro-1H-thieno[3,4-c]pyrazol-2(3H)-yl)pyridine-3-sulfonamide]
–	76 °C	COC1CCc2c1[nH]n(-c1ccccn1)c2=O (stereo not shown) [Compound 11, 6-methoxy-2-(pyridin-2-yl)-1,4,5,6-tetrahydrocyclopenta[c]pyrazol-3(2H)-one]
9.5 µM	–	CN(Cc1ccccn1)S(=O)(=O)c1ccc(-n2[nH]c3c(c2=O)CSC3)nc1 [Compound 27, N-methyl-6-(3-oxo-4,6-dihydro-1H-thieno[3,4-c]pyrazol-2(3H)-yl)-N-(pyridin-2-ylmethyl)pyridine-3-sulfonamide]
21 µM	–	CN(C)c1ccnc(-n2[nH]c3c(c2=O)CSC3)c1 [Compound 60, 2-[4-(dimethylamino)pyridin-2-yl]-1,2,4,6-tetrahydro-3H-thieno[3,4-c]pyrazol-3-one hydrochloride]
–	182 °C	CN(C)c1ccnc(-n2[nH]c3c(c2=O)CSC3)c1 (as salt: HCl) [Compound 60, 2-[4-(dimethylamino)pyridin-2-yl]-1,2,4,6-tetrahydro-3H-thieno[3,4-c]pyrazol-3-one hydrochloride]
3.9 µM	> 250 °C	Cc1ccnc(-n2nc3c(c2[O-])CSC3)c1.[Na+] [Compound 62, sodium 2-(4-methylpyridin-2-yl)-2,6-dihydro-4H-thieno[3,4-c]pyrazol-3-olate]
6 µM	156 °C	O=c1c2c([nH]n1-c1ccccn1)CCC2 [Compound 7, 2-(pyridin-2-yl)-1,4,5,6-tetrahydrocyclopenta[c]pyrazol-3(2H)-one]
–	175 °C	O=c1c2c([nH]n1-c1ccccn1)CCSC2 [Compound 12, 2-(pyridin-2-yl)-1,4,6,7-tetrahydrothiopyrano[4,3-c]pyrazol-3(2H)-one]
